These results are taken from patent US20020127717A1, “Preparation of replicating macrophages and use in diagnosis and therapy” (priority 2000, published 2002).

The target in experiment [1] is T1, Ulex Europaeus-I Agglutimin (UEA-I) (Ulex europaeus, UniProt P22972).
T1 construct: purchased Vector Laboratories, Inc
T1 sequence (P22972 1-243): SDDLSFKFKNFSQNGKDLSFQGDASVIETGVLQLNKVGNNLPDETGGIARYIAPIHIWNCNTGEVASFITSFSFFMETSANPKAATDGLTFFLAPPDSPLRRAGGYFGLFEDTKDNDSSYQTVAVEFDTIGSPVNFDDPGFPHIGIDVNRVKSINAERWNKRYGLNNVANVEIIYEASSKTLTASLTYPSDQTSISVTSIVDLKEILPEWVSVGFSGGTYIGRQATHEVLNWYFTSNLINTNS
Description: FITC-UEA-I lectin binding to acetone-fixed cells, specificity control. To be noted: 0.2M, room temperature, 30 minutes preincubation. The method, then:
FITC-conjugated Ulex Europaeus-I Agglutimin (UEA-I) (Vector Laboratories, Inc.) was incubated with acetone-fixed cells at 37° C. for 1 hour. The specificity of UEA-I, the lectin was determined by preincubating with 0.2M […] (Sigma), at room temperature for 30 minutes.

In experiment [2] the test system is Bovine Capillary Endothelial Cells (BCE). Description: DNA synthesis assay (3H-Thymidine), stimulation by growth factors, BCE. It counts as cell-based. The method, then:
(§1) DNA Synthesis Assay: DNA synthesis was determined by culturing the cells with ^3H-Thymidine as is standard in the art. The KC isolates used in the assay were at day 21 post liver isolation. The normal endothelial cells and foreskin fibroblasts were cultured in media consisting of RPMI-1640, fetal bovine serum 20% supplemented with specific factors as described in Nakamura S and Salahuddin SZ, Science 242: 426-430,1988. KC isolates were cultured as described above. Cells were harvested between 4 hours and 18 hours culture depending on the stimulatory agent used. A stimulation index was calculated by dividing radioactivity incorporated into cells with the stimulatory agent versus cells in culture medium alone.
(§2) Cultured Cells: Human umbilical vein endothelial cells (HUV-E) were prepared as described in Nakamura et al, Science 1988. Bovine capillary endothelial cells (BCE) were a gift from Dr. Peter Biberfeld of Karolinska Institute, Stockholm, Sweden. Normal human foreskin fibroblasts (HSF) were obtained from the American Type Tissue Culture Collection (ATCC), Rockville, Md. (CRL-1635).
(§3) Various growth factors were tested for their ability to stimulate growth of the human Kupffer cell isolates (KC-3) and other cell types. KC isolates used in this experiment were grown in culture for 21 days with MCG medium.

The test system of experiment [3] is Human Foreskin Fibroblast Cells (HSF). Briefly: DNA synthesis assay (3H-Thymidine), stimulation by growth factors, HSF. Format: cell-based. Particulars: HFS. The method, then: as §1, §2, §3
Experiment [4] concerns Human Umbilical Vein Endothelial Cells (HUV-E). Description: DNA synthesis assay (3H-Thymidine), stimulation by growth factors, HUVE. Format: cell-based. The method, then:
as §1, §2, §3

Experiment [5] relates to human Kupffer cell isolates (KC-1, KC-2, KC-3). Description: DNA synthesis assay (3H-Thymidine), stimulation by growth factors, Kupffer cell isolates. It counts as cell-based. Details: key: ratio: uptake with stimulatory agent / uptake in medium alone.
The test system is the same in experiment [6]. Described as above. Details: key to Stimulation Index of Cultured Target cells: ratio: uptake with stimulatory agent / uptake in medium alone. To be noted: for effect on DNA synthesis of KC isolates (in words): KC isolates grown 21 days in MCG medium, summary of Table 3. Format: cell-based. The method, then:
as §1, §3

As to `O=C(CO)[C@H](O)[C@@H](O)[C@@H](O)CO` [L-fructose], in experiment [1], the “binding of UEA-I after preincubating the lectin” value was “No binding was observed”.
Turning to “BFGF: bFGF = Fibroblast Growth Factor β, Lot # 14765800, Boehringer Manheim”, the “Stimulation Index of Cultured Target cells” value (shortened to “Stimulation Index”) worked out at 2.3 in experiment [2] (HC (hydrocortisone) +); 6.2 in experiment [2] (HC (hydrocortisone) −); 1.9 in experiment [3] (HC (hydrocortisone) +); 2.2 in experiment [3] (HC (hydrocortisone) −); 15.4 in experiment [4] (HC (hydrocortisone) +); 35.4 in experiment [4] (HC (hydrocortisone) −). The “Stimulation Index” value in experiment [5] (KC-1, HC (hydrocortisone) +) was 0.5; in experiment [5] (KC-1, HC (hydrocortisone) −), 0.8; in experiment [5] (KC-2, HC (hydrocortisone) +), 0.5; in experiment [5] (KC-2, HC (hydrocortisone) −) it was 0.6; in experiment [6] (KC-3, HC (hydrocortisone) +), 1.2; in experiment [6] (KC-3, HC (hydrocortisone) −) it was 1.2. In addition, the “effect on DNA synthesis of KC isolates (in words)” value (“effect on DNA synthesis” for short) in experiment [6] is “little to no effect”.
Turning to EGF: epidermal growth factor, the “Stimulation Index” value is 2.9 in experiment [2] (HC (hydrocortisone) +); 6.8 in experiment [2] (HC (hydrocortisone) −); 1.1 in experiment [3] (HC (hydrocortisone) +); 2.8 in experiment [3] (HC (hydrocortisone) −); 25.4 in experiment [4] (HC (hydrocortisone) −); 0.9 in experiment [5] (KC-1, HC (hydrocortisone) +). Further, the “Stimulation Index” value in experiment [5] (KC-1, HC (hydrocortisone) −) turned out to be 1.2; in experiment [5] (KC-2, HC (hydrocortisone) +), 0.9; in experiment [5] (KC-2, HC (hydrocortisone) −) it was 1.1; in experiment [6] (KC-3, HC (hydrocortisone) +), 0.6; in experiment [6] (KC-3, HC (hydrocortisone) −), 1.2. Also, the “effect on DNA synthesis” value in experiment [6] is reported as “little to no effect”.
Turning to PDGF, the “Stimulation Index” value in experiment [2] (HC (hydrocortisone) +) was determined as 1.8; in experiment [2] (HC (hydrocortisone) −) it was 4.4; in experiment [3] (HC (hydrocortisone) +), 1.5; in experiment [3] (HC (hydrocortisone) −) it was 1.4; in experiment [4] (HC (hydrocortisone) +), 20.2; in experiment [4] (HC (hydrocortisone) −) it was 10.0. The “Stimulation Index” value in experiment [5] (KC-1, HC (hydrocortisone) +) is 1.1; in experiment [5] (KC-1, HC (hydrocortisone) −) it was 1.2; in experiment [5] (KC-2, HC (hydrocortisone) +), 1.2; in experiment [5] (KC-2, HC (hydrocortisone) −), 1.4; in experiment [6] (KC-3, HC (hydrocortisone) +) it was 1.1; in experiment [6] (KC-3, HC (hydrocortisone) −), 1.4. In addition, the “effect on DNA synthesis” value in experiment [6] is reported as “little to no effect”.
Turning to TNFα, the “Stimulation Index” value in experiment [2] (HC (hydrocortisone) +) amounted to 1.2; in experiment [3] (HC (hydrocortisone) +) it was 0.8; in experiment [4] (HC (hydrocortisone) +) it was 1.0; in experiment [5] (KC-1, HC (hydrocortisone) +), 0.8; in experiment [5] (KC-2, HC (hydrocortisone) +) it was 0.9; in experiment [6] (KC-3, HC (hydrocortisone) +), 1.2.
